Measured values reported in patent US10308595B2, “Albicidin derivatives, their use and synthesis” (priority 2013, dated 2019).

Test system: Escherichia coli strains expressing albicidin resistance determinants (DH5aAlbr, albD, alb14, alb19, sbmC)
Test: Microbiological assay (Zhang et al.) for cross-resistance
Assay type: cell-based
Settings: synthetic versus natural albicidin, FIG. 11
From the text: The microbiological assay described by Zhang et al., (J Appl Microbiol., 1998, 85, 1023-8) was used to study cross-resistance between synthetic albicidin (10) and the natural product albicidin purified from albicidin heterologous host developed by Vivien et al. (Antimicrob Agents Chemother., 2007, 51, 1549-52). Several Escherichia coli strains expressing a wide range of albicidin resistance determinants were used for this microbiological bioassay: strain DH5aAlbr (a spontaneous albicidin-resistant DH5a derivative; Rott et al., (J. Bacteriol., 1996, 178, 4590-4596.) and strains harboring albD (an albicidin-detoxifying gene, Zhang and Birch (Proc. Natl. Acad. Sci. USA, 1997, 94, 9984-9989.), alb14 (an albicidin efflux pump gene conferring albicidin resistance in E. coli, Bostock et al., (J. Appl. Microbiol., 2006, 101, 151-160.), alb19 (a McbG gene conferring albicidin resistance in E. coli, Hashimi et al. (Antimicrob. Agents Chemother., 2007, 51, 181-187.), or sbmC (a microcin B17 resistance gene, Baquero et al. (Mol. Microbiol., 1995, 18, 301-311.).

COc1c(NC(=O)c2ccc(NC(=O)c3ccc(NC(=O)[C@H](CC#N)NC(=O)c4ccc(NC(=O)/C(C)=C/c5ccc(O)cc5)cc4)cc3)c(OC)c2O)ccc(C(=O)O)c1O [synthetic albicidin (10), (S,E)-4-(4-(4-(3-cyano-2-(4-(3-(4-hydroxyphenyl)-2-methylacrylamido)benzamido)propanamido)benzamido)-2-hydroxy-3-methoxybenzamido)-2-hydroxy-3-methoxybenzoic acid]
resistance pattern (cross-resistance) in albicidin-resistant E. coli strains: exactly the same
